From PMC11096368, “Transcriptomic signature, bioactivity and safety of a non-hepatotoxic analgesic generating AM404 in the midbrain PAG region” (Scientific Reports, 2024)
Where two headings read alike, the source gives them in different places.

Tests used:
[1] = 28-day oral toxicity study with 14-day recovery (GLP); type: in vivo, rats; conditions: both sexes, Sprague-Dawley, rat, in vivo, oral; once daily for 28 days; read-out: No-adverse effect level (NOAEL)
Source text: (§1) We next set out to determine the toxicity and toxicokinetics of SRP-001 when administered via oral gavage once daily to Sprague–Dawley Rats for 28 d (Calvert Labs/Altasciences, Scott Township, PA USA). The study also assessed the reversibility of any toxicity observed with a 14-d recovery period. One hundred thirty-six experimentally naïve Sprague–Dawley rats (68 males and 68 females), 8 weeks old and weighing 167–295 g for males and females at the outset of the study, were assigned to toxicology treatment groups (Groups 1–4) or toxicokinetic groups (Groups 5–7). For toxicology groups, 10 animals/sex/dose were administered 0, 300, 900, or 1500 mg/kg/d SRP-001. An additional 5 animals/sex/dose in Groups 1 and 4 were targeted for a 14-d recovery period and euthanized on day 43. For toxicokinetic groups, 6 animals/sex/dose were administered 300, 900, or 1500 mg/kg/d SRP-001. Mortality/morbidity was performed twice daily and once prior to scheduled sacrifice. Animals in Groups 1–4 were observed prior to each dose administration and 1–3 h post-dose. Animals in Groups 1–4 were also observed once daily on non-dosing days and once prior to scheduled sacrifice. Body weights were recorded prior to randomization/selection, prior to dose administration on day 1, and weekly thereafter. Food consumption was determined weekly for animals in Groups 1–4. Ophthalmology examinations were performed before treatment initiation and during the last week of dosing for animals in Groups 1–4. The functional observational battery was assessed for 5 animals/sex/group in Groups 1–4 once prior to dosing and at 1–2 h following dose administration on day 1. Blood for evaluation of hematology, coagulation, and clinical chemistry and urine for urinalysis was collected from animals in Groups 1–4 on day 29 or day 43. Blood for toxicokinetic evaluation was collected from animals in Groups 5–7 at selected timepoints on days 1 and 28. All surviving animals in Groups 1–4 were sacrificed on day 29 or day 43. Selected tissues were harvested at necropsy, selected organs weighed, and selected tissues evaluated microscopically.
(§2) Following dosing, the reversibility of any toxicity observed was assessed with a 14-d recovery period of animals receiving 0 or 1500 mg/kg of SRP-001. SRP-001-related clinical signs included red staining around the forepaw, forelimbs, mouth, muzzle, and nose and brown-staining in the anogenital area. […] The majority of clinical signs were observed during the first 3 weeks of dosing, and by day 28, the majority of the animals appeared normal. […] These differences remained within or close to the historically normal ranges. Statistically significant differences in total protein, globulin, and mean corpuscular hemoglobin remained present in males after the recovery period, although at a smaller magnitude. SRP-001-related microscopic findings were limited to the liver and included minimal to mild centrilobular hepatocellular hypertrophy in both sexes at ≥ 300 mg/kg/d. This finding correlated with statistically significant increases in liver weights in both sexes.
(§3) Exposure to SRP-001 following oral gavage dosing at 300, 900, and 1500 mg/kg SRP-001 was dose-dependent, increasing with escalating doses following a single dose. […] Based on the parameters observed, the no-adverse effect level (NOAEL) of SRP-001, when administered once daily for 28 d to Sprague–Dawley rats, was 1500 mg/kg.

[2] = tested on: Sprague Dawley rats; test: as above; type: in vivo
Source text: as §1, §2, §3

[3] = as above; type: in vivo, dog; conditions: both sexes, Beagle, dog, in vivo, oral; given T.I.D. for 28 days; read-out: No adverse effect level (NOAEL)
Method: (§4) SRP-001 was supplied by Olon Ricerca Bioscience as an off-white powder. The test article was then prepared into dosing suspensions for oral administration via gavage (Calvert Labs/Altasciences, Scott Township, PA USA). Thirty-two experimentally naïve Beagle dogs (16 males and 16 females), 8–9 months old and weighing 6.7–10.5 kg for males and females at the outset of the study, were administered 0, 165, 330, or 495 mg/kg/d. Animals were dosed three times daily (3–5 h between doses) for 28 consecutive days. Prior to this dosing schedule, the dosing was initiated with once daily dosing at 0, 100, 300, or 900 mg/kg at a dose volume of 5 to 10 ml/kg. Due to adverse clinical signs noted following dosing of all groups at a dose volume of 10 ml/kg, dosing of the animals was suspended on day 2 for males and day 1 for females. The study was restarted with T.I.D. dosing in lower dose volume to reduce vehicle-related toxicity.
(§5) In-life data from the initial start of the study using once daily dosing were not included in the report but are maintained in the study file. Following the restart of the study, the study was conducted as follows. Mortality/morbidity was performed twice daily and once prior to the scheduled sacrifice. Animals were observed prior to each dose administration and 1–3 h after each dose administration. Animals were also observed once daily on non-dosing days and once prior to scheduled sacrifice. Body weights were recorded prior to randomization/selection, prior to the first dose administration on day 1 and weekly thereafter. Food consumption was determined daily. Ophthalmology examinations and electrocardiograms were performed before treatment initiation and during the last week of dosing. Blood for evaluation of hematology, coagulation and clinical chemistry and urine for urinalysis was collected prior to treatment initiation and on days 29 and 43. Blood for toxicokinetic evaluation was collected at selected timepoints on days 1 and 28. All surviving animals were sacrificed on day 29 or day 43. Selected tissues were harvested at necropsy, selected organs weighed, and selected tissues evaluated microscopically.
(§6) Due to the limited magnitude of the changes in hematology parameters and the corresponding changes in reticulocytes, this finding was not considered adverse.
(§7) This finding was indicative of the biliary system starting to be overwhelmed and was considered adverse. Other microscopic findings of the liver included Kupffer cell pigment, Kupffer cell erythrophagocytosis, and Kupffer cell hypertrophy/hyperplasia. The Kupffer cell changes were thought to be, at least in part, due to phagocytosis of erythrocytes resulting in the accumulation of cytoplasmic pigment and increased demand for Kupffer cells resulting in hypertrophy/hyperplasia. These microscopic changes correlated with increased liver organ weights. Microscopic evaluation also identified thyroid gland follicular cell hypertrophy.
(§8) Only microscopic changes in Kupffer cell pigment and erythrophagocytosis and minimal increased erythroid cellularity of the bone marrow were still present in Group-4 animals following the recovery period. Exposure to SRP-001 was dose-dependent and generally dose-proportional to greater than dose-proportional from 165 to 330 mg/kg/d and less than dose-proportional from 330 to 495 mg/kg/d. Exposure to SRP-001 following 28 consecutive days of oral dosing was 2 to 5 times less than exposure observed on day 1. Based on the clinical signs, microscopic changes, and clinical pathology changes, the no-adverse-effect level for SRP-001 was 330 mg/kg/d when given T.I.D. for 28 d.

[4] = tested on: beagle dogs; test: as above; type: in vivo, dog
Method: as §4, §5, §6, §7, §8

[5] = both, Beagle, dog, in vivo, po, 28 d

Compound: CCN(CC)C(=O)c1ccccc1S(=O)(=O)NCC(=O)Nc1ccc(O)cc1 [SRP-001, N,N-diethyl-2-[[2-(4-hydroxyanilino)-2-oxo-ethyl]sulfamoyl]benzamide]
- NOAEL at 28 d [1]: 1500 mg/kg
- Exposure versus dose ([2]; 300, 900, 1500 mg/kg, single dose and 28 days): dose-dependent
- Body weight, food consumption, functional observation battery, ophthalmology, coagulation, urinalysis ([2]; 300, 900, 1500 mg/kg/d): no SRP-001-related effects
- Doses without treatment-related adverse effects ([2]; 28 days of daily oral doses, rats): up to 1500 mg/kg/day
- Doses with minimal to mild centrilobular hepatocellular hypertrophy (non-adverse) ([2]; both sexes, 28 d): ≥ 300 mg/kg/day
- NOAEL at 28 d [3]: 330 mg/kg/day
- Body weights, food consumption, ophthalmology, electrocardiology, coagulation, urinalysis ([4]; 28 days): No SRP-001 related changes
- Reversibility after 14-day recovery period ([4]; both, Beagle, dog, in vivo, 14 d): nearly all SRP-001-related changes observed on day 29 were reversible
- Doses without treatment-related adverse effects [4, 5]: up to 330 mg/kg/day
- Exposure after 28 consecutive days relative to day 1 [4, 5]: 2-5 times less
- Clinical chemistry parameters ([4]; dog, in vivo): increases in triglycerides and alkaline phosphatase and decreases in cholesterol
- Clinical signs ([4]; dog, in vivo): emesis, loose feces, and salivation
- Hematology parameters ([4]; dog, in vivo): decreases in red blood cells, hemoglobin, hematocrit, and mean corpuscular hemoglobin concentration
- Reversibility after 14-day recovery period ([4]; dog, in vivo): nearly all SRP-001 related changes observed on Day 29 were reversible
